What all share (experiment): IC50 cell viability (Alamar Blue, 96 h)
A general note: Alamar Blue is a resazurin reagent that responds to reducing activity.

Assay [1] has as its system 10326. The protocol: (§1)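 Cells in log-phase growth were seeded in 96-well plates and treated with drug for 96 h at 37°C using 8-point serial dilutions from 0.0025 to 10 µM. Viability was read by Alamar Blue fluorescence after 6 h and normalised to positive and vehicle (DMSO) controls. IC50 values were fitted in ActivityBase; the value given is the mean of two independent experiments.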

For assay [2], the system named is 11060. The procedure: as §1
Assay [3] relates to 14169. The protocol: as §1
Assay [4] relates to 8645. The protocol:
as §1

The subject of assay [5] is A549. The procedure:
as §1

Assay [6] concerns CAKI-1. The protocol:
as §1

In assay [7] the test system is HCC2429. The procedure: as §1
Assay [8] has as its system HS-27. The procedure:
as §1

Assay [9] has as its system P896-CL. The procedure:
as §1

In assay [10] the test system is PER-403. The procedure: as §1
Assay [11] has as its system PER-535. The protocol:
as §1

In assay [12] the test system is PER-536. The procedure:
as §1

The subject of assay [13] is PER-624. The procedure:
as §1

Assay [14] deals with PER-704. The protocol: as §1
For assay [15], the system named is PER-712. The protocol: as §1
The subject of assay [16] is PER-891. The procedure:
as §1

Assay [17] deals with RPMI2650. The procedure: as §1
Assay [18] deals with TC797. The protocol: as §1
The subject of assay [19] is TY82. The procedure:
as §1

In assay [20] the test system is WI-38. The procedure: as §1

Take `CN(Cc1cnc2nc(N)nc(N)c2n1)c1ccc(C(=O)N[C@@H](CCC(=O)O)C(=O)O)cc1` [Methotrexate]: the IC50 cell viability in assay [1] is more than 10000 nM; in assay [2] it was 869 nM; in assay [3] it was 65.1 nM; in [4] it was 99 nM; in [5] it was 53.9 nM; in assay [6], more than 10000 nM. Moreover, the IC50 cell viability was 93.3 nM in assay [7]; more than 10000 nM in [8]; more than 10000 nM in assay [9]; 30.9 nM in assay [10]; more than 10000 nM in [11]; more than 10000 nM in assay [12]. Further, the IC50 cell viability in assay [13] is 25.7 nM; in assay [14], 106 nM; in [15], 132 nM; in assay [16], more than 10000 nM; in assay [17], more than 10000 nM; in [18], 267 nM. Also, the results for the IC50 cell viability in assay [19] and in [20] were 136 nM and more than 10000 nM, respectively.

For the molecule `CC(=O)O[C@@]12CO[C@@H]1C[C@H](O)[C@@]1(C)C(=O)[C@H](O)C3=C(C)[C@@H](OC(=O)[C@H](O)[C@@H](NC(=O)OC(C)(C)C)c4ccccc4)C[C@@](O)([C@@H](OC(=O)c4ccccc4)[C@H]21)C3(C)C` [Docetaxel], the IC50 cell viability in assay [1] is less than 2.5 nM; in assay [2], less than 2.5 nM; in [3], less than 2.5 nM; in [4], less than 2.5 nM; in assay [5] it was less than 2.5 nM; in assay [6], 5000 nM. Moreover, the IC50 cell viability in assay [7] is less than 2.5 nM; in assay [8], less than 2.5 nM; in [9], 3.08 nM; in assay [10], less than 2.5 nM; in assay [11], 6.25 nM; in [12], 16.4 nM. The IC50 cell viability was less than 2.5 nM in assay [13]; 4.11 nM in assay [14]; 3.2 nM in assay [15]; more than 10000 nM in assay [16]; more than 10000 nM in [17]; 3.88 nM in [18]. Also, the figures for the IC50 cell viability in assay [19] and in assay [20] were 9.64 nM and 2.82 nM, respectively.

The values are drawn from the supplement of paper PMC5762512.
